Measured values published in US20110071124A1, “Compounds that Inhibit Production of sAPPB and AB and Uses Thereof” (The Trustees of Columbia University in the City of New York, priority 2008, published 2011).
Where two headings read alike, the source gives them in different places.

Assays:
[1] = tested on: sAPPβ (BACE1 cleavage of SEAP-APPwt) in SY5Y-BACEGFP-SEAPAPPwt cells; assay: cell-based BACE1 assay (sAPPβ modified ELISA)
Protocol: FIG. 1. An sAPPβ assay utilized to identify inhibitors of BACE1. The assay utilizes SY5Y cells stably overexpressing BACE-GFP and SEAP-APPwt. Cells are incubated with a candidate compound for 6 hours prior to harvesting media. BACE1-mediated cleavage of APP results in the release of sAPPβ into the media. α-secretase, a competing enzyme that is non-amyloidogenic, also cleaves APP to release […]. Using an sAPPβ-specific antibody (sβwt), SEAP-sAPPβ is specifically captured in a modified ELISA assay. Detection is achieved by addition of the fluorescent alkaline phosphatase substrate, 4-methylumbelliferyl phosphate (4-MUP).
(§1) FIG. 13. […] Compounds were tested in SY5Y-BACEGFP-SEAPAPPwt cells using the cell-based BACE1 assay. Select compounds were also investigated for Aβ-lowering effect using a commercial Aβ ELISA kit (BioSource). All compounds were tested at 8 concentrations (30, 10, 3, 1, 0.3, 0.1, 0.03, and 0.01 μM), and data points were analyzed with Origin software and fitted using a logistic model for IC50 determination.
As described in the Examples below, and depicted in FIG. 1, an sAPPβ ELISA assay may comprise cells, for example, SY5Y cells, transfected with a BACE1 reporter construct, such as a GFP-tagged BACE1 (BACE-GFP), and a wild type APP reporter construct, such as a secreted alkaline phosphatase (SEAP)-tagged wild type APP (SEAP-APPwt). BACE1 cleavage of the reporter-tagged APP (e.g. SEAP-APPwt) may result in secretion into the media of SEAP-tagged sAPPβ, which may be collected and specifically captured using an sAPPβ cleavage site-specific antibody (e.g. stβwt). Following washing, a substrate may be used, for example, the fluorescent alkaline phosphatase substrate 4-methylumbelliferyl phosphate (4-MUP), to detect the captured SEAP-sAPPβ.
A cell-based modified ELISA assay for measuring sAPPβ, the secreted ectodomain of β-amyloid precursor protein (APP) following β-secretase (BACE1) cleavage, was used to identify a class of compounds that interfered with the first step of sAPPβ generation. This assay has been described in International Application PCT/US2007/015938 (Published as International Publication No. WO 08/008463), which is herein incorporated in its entirety for all purposes.
The SY5Y-BACEGFP-SEAPAPPwt cell based assay was developed to discover novel small molecule modulators of BACE1 activity. SY5Y cells were stably transfected with GFP-tagged BACE1 (BACE-GFP) and secreted alkaline phosphatase (SEAP)-tagged wildtype APP (SEAP-APPwt). BACE1 cleavage of SEAP-APPwt results in secretion into the media of SEAP-tagged sAPPβ, which is collected and specifically captured using an sAPP0 cleavage site-specific antibody (sβwt). After washing, the fluorescent alkaline phosphatase substrate 4-methylumbelliferyl phosphate (4-MUP) is used to detect the captured SEAP-sAPPβ (FIG. 1).
The 15 LDDN compounds selected based on their 3-point dose-response profile were tested at 12 concentrations (ranging from 0.1 nM to 30 μM) in the cell-based BACE1 assay. The assay was conducted in 96-well format to maximize the Z′ factor. Compounds were characterized in duplicate cell plates, each containing 12 doses of compound in triplicate. Cell viability was measured at 6 and 24 hours using Promega's Cell Titer-Glo kit according to the manufacturer's protocol. The dose-response curves for sAPPβ reduction were plotted using Origin software and fitted using a logistic model for IC50 determination.
(§2) 27 structural analogs of LDN-0057228 were synthesized and tested using the cell-based BACE1 assay in SY5Y-BACEGFP-SEAPAPPwt cells (FIG. 13). 4 analogs, in addition to the parent compound, were also assessed for Aβ40 lowering activity using a commercial Aβ kit (BioSource). Because LDN-0057228 resembles CNS monoamine transporter inhibitors, this analog series was given the designation “CNS.” LDN-0057228 gave an unexpectedly low potency (IC50˜20 μM for both sAPPβ and Aβ40 reduction) compared to the ˜7 μM potency obtained using the same compound in FIG. 8.

[2] = tested on: Aβ40 in SY5Y-BACEGFP-SEAPAPPwt cells; assay: Aβ40 ELISA (BioSource) in SY5Y-BACEGFP-SEAPAPPwt cells; type: cell-based; conditions: for IC50: SAR study, 8 concentrations (30-0.01 μM), SY5Y-BACEGFP-SEAPAPPwt cells
Protocol: FIG. 11. 5 LDDN compounds reduce Aβ40 in SYSY-BACEGFP-SEAPAPPwt cells. sAPPβ and 24-hour cell viability was performed as described in Chapter 4.1. Aβ40 ELISA was performed using the Aβ40 ELISA kit (BioSource) according to the manufacturer's protocol. Cell culture media was collected after 6 hours of treatment with 4 concentrations (30, 10, 3, 0.3 μM) of compound and diluted 3:10 prior to loading onto the Aβ ELISA plate. The data points for sAPPβ and Aβ were roughly superimposed. Data points represent mean±s.d. of 3 determinations.
as §1
In other non-limiting embodiments, the effective amount of at least one compound of Formulas I-VII, and/or a compound depicted in FIG. 19, may be correlated with the compound's ability to reduce the level of Aβ40 in an in vitro assay that measures the level of Aβ40 produced in a cell line, for example, an SY5Y-BACEGFP-SEAPAPPwt cell line. In one non-limiting example, the level of Aβ40 expressed by the cell line may be measured through the use of an Aβ40 Elisa kit (Bio Source). In one embodiment, the assay comprises incubating the Aβ40 expressing cells with a compound of Formulas I-VII, and/or a compound depicted in FIG. 19, followed by assaying the concentration of Aβ40 in the cell media. In such an assay, a greater reduction of Aβ40 concentration in the cell media following incubation with a compound compared to a control cell line not contacted with the compound is correlative with the compound's therapeutic efficacy.
The 15 LDDN compounds were tested in SY5Y-BACEGFP-SEAPAPPwt cells for their ability to reduce Aβ40 using a commercial Aβ40 ELISA kit (BioSource). SY5Y-BACEGFP-SEAPAPPwt cells were grown to 100% confluence and incubated with 4 concentrations of each compound (30, 10, 3, 0.3 μM). Cell culture media was collected after 6 hours of compound incubation and diluted 3:10 in sample diluent supplied in the Aβ40 ELISA kit. Aβ ELISA was performed according to the manufacturer's protocol. […] LDN-0057228 and LDN-0069630 are small molecules with ample chemical space for modification, and are thus considered good candidates for medicinal chemistry.
as §2

[3] = SAR study, 8 concentrations (30-0.01 μM), SY5Y-BACEGFP-SEAPAPPwt cells, read-out: IC50(sAPPβ)

Row | SMILES | IC50 ([1]; 12 concentrations 0.1 nM to 30 μM, 96-well format (FIG. 8), read-out: cell-based IC50 (sAPPβ), 12-point dose-response) [µM] | IC50 [1, 3] [µM] | dose-dependent decrease in Aβ40 ([2]; 4 concentrations (30, 10, 3, 0.3 μM), 6 hours) | IC50 [2] [µM]
1 | Fc1ccc(C(OCCN2CCC[C@H]2CNCCc2ccccc2)c2ccc(F)cc2)cc1 [LDN-0057228] | ~7 | ~20 | caused a dose-dependent decrease in Aβ40 | ~20
2 | O=C(CCc1ccccc1)NC[C@@H]1CCCN1CCOC(c1ccc(F)cc1)c1ccc(F)cc1 [CNS-2] |  | 8.9 |  | 5
